Measurements from ChEMBL document CHEMBL1201862, “PubChem BioAssay data set” (2004).
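Each compound was tested at five concentrations against cells in 96-well plates for 48 hours. GI50 marks 50% less growth.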 Calls of active or inactive are those of the source. Rule as the data show it: active = GI50 up to about 1.1 µM and inactive = higher.

What was measured:
Test in all cases: NCI anticancer screen, dose series, 48 h
EKVX = tested on: EKVX
SN12C = tested on: SN12C
HOP-92 = tested on: HOP-92
SK-MEL-5 = tested on: SK-MEL-5
OVCAR-8 = tested on: OVCAR-8
CCRF-CEM = tested on: CCRF-CEM
SK-OV-3 = tested on: SK-OV-3
SF-539 = tested on: SF-539
IGROV-1 = tested on: IGROV-1
CAKI-1 = tested on: CAKI-1
UACC-257 = tested on: UACC-257
NCI-H226 = tested on: NCI-H226
A498 = tested on: A498
SNB-19 = tested on: SNB-19
SR = tested on: SR
LOX IMVI = tested on: LOX IMVI
SK-MEL-2 = tested on: SK-MEL-2
A549 = tested on: A549
HOP-62 = tested on: HOP-62
HCT-116 = tested on: HCT-116
M14 = tested on: M14
SK-MEL-28 = tested on: SK-MEL-28
HT-29 = tested on: HT-29
OVCAR-4 = tested on: OVCAR-4
BT-549 = tested on: BT-549
Malme-3M = tested on: Malme-3M
MOLT-4 = tested on: MOLT-4
MCF7 = tested on: MCF7
786-0 = tested on: 786-0
NCI-H460 = tested on: NCI-H460
NCI/ADR-RES = tested on: NCI/ADR-RES
RPMI-8226 = tested on: RPMI-8226
HL-60 = tested on: HL-60
UO-31 = tested on: UO-31
COLO 205 = tested on: COLO 205
OVCAR-5 = tested on: OVCAR-5
UACC-62 = tested on: UACC-62
SW-620 = tested on: SW-620
SF-268 = tested on: SF-268
HCT-15 = tested on: HCT-15
NCI-H23 = tested on: NCI-H23
U-251 = tested on: U-251
Hs-578T = tested on: Hs-578T
HCC 2998 = tested on: HCC 2998
MDA-MB-435 = tested on: MDA-MB-435
RXF 393 = tested on: RXF 393
KM12 = tested on: KM12
DU-145 = tested on: DU-145
T47D = tested on: T47D
SF-295 = tested on: SF-295
MDA-MB-231 = tested on: MDA-MB-231
OVCAR-3 = tested on: OVCAR-3
NCI-H522 = tested on: NCI-H522
SNB-75 = tested on: SNB-75
PC-3 = tested on: PC-3
TK-10 = tested on: TK-10
ACHN = tested on: ACHN
K562 = tested on: K562

O=C(Nc1ccc(Cl)cc1)c1cc(S(=O)(=O)Nc2n[nH]c(=O)n2-c2ccccc2)c(S)cc1Cl was tested, and the GI50 (EKVX) was > 100 µM (inactive), the GI50 (SN12C) was > 100 µM (inactive) and the GI50 (HOP-92) was > 100 µM (inactive). For the same molecule, the GI50 (SK-MEL-5) was > 100 µM (inactive), the GI50 (OVCAR-8) was > 100 µM (inactive) and the GI50 (CCRF-CEM) was > 100 µM (inactive). For the same molecule, the GI50 (SK-OV-3) was > 100 µM (inactive), the GI50 (SF-539) was > 100 µM (inactive) and the GI50 (IGROV-1) was > 100 µM (inactive). The GI50 (CAKI-1) was > 100 µM (inactive), the GI50 (UACC-257) was > 100 µM (inactive) and the GI50 (NCI-H226) was > 100 µM (inactive). For the same molecule, the GI50 (A498) was > 100 µM (inactive), the GI50 (SNB-19) was > 100 µM (inactive) and the GI50 (SR) was > 100 µM (inactive). For the same molecule, the GI50 (LOX IMVI) was > 100 µM (inactive), the GI50 (SK-MEL-2) was > 100 µM (inactive) and the GI50 (A549) was > 100 µM (inactive). The GI50 (HOP-62) was > 100 µM (inactive), the GI50 (HCT-116) was > 100 µM (inactive) and the GI50 (M14) was > 100 µM (inactive). The GI50 (SK-MEL-28) was > 100 µM (inactive), the GI50 (HT-29) was > 100 µM (inactive) and the GI50 (OVCAR-4) was > 100 µM (inactive). For the same molecule, the GI50 (BT-549) was > 100 µM (inactive), the GI50 (Malme-3M) was > 100 µM (inactive) and the GI50 (MOLT-4) was 6.22 µM (inactive). The GI50 (MCF7) was > 100 µM (inactive), the GI50 (786-0) was > 100 µM (inactive) and the GI50 (NCI-H460) was > 100 µM (inactive). For the same molecule, the GI50 (NCI/ADR-RES) was > 100 µM (inactive), the GI50 (RPMI-8226) was > 100 µM (inactive) and the GI50 (HL-60) was > 100 µM (inactive). For the same molecule, the GI50 (UO-31) was > 100 µM (inactive), the GI50 (COLO 205) was > 100 µM (inactive) and the GI50 (OVCAR-5) was > 100 µM (inactive). The GI50 (UACC-62) was > 100 µM (inactive), the GI50 (SW-620) was > 100 µM (inactive) and the GI50 (SF-268) was > 100 µM (inactive). The GI50 (HCT-15) was over 100 µM, the GI50 (NCI-H23) was > 100 µM (inactive) and the GI50 (U-251) was > 100 µM (inactive). The GI50 (Hs-578T) was > 100 µM (inactive), the GI50 (HCC 2998) was > 100 µM (inactive) and the GI50 (MDA-MB-435) was > 100 µM (inactive). For the same molecule, the GI50 (RXF 393) was > 100 µM (inactive), the GI50 (KM12) was > 100 µM (inactive) and the GI50 (DU-145) was > 100 µM (inactive). For the same molecule, the GI50 (T47D) was > 100 µM (inactive), the GI50 (SF-295) was > 100 µM (inactive) and the GI50 (MDA-MB-231) was > 100 µM (inactive). For the same molecule, the GI50 (OVCAR-3) was 6.28 µM (inactive).
CC(=O)C1=C(C)N(c2ccc(C)cc2)C2(O)C=CC(O)=C3C(=O)c4ccccc4C(=O)C312 (configuration not stated) was tested, and the GI50 (EKVX) was 19.3 µM (inactive), the GI50 (SN12C) was 13.6 µM (inactive) and the GI50 (HOP-92) was 55.1 µM (inactive). The GI50 (SK-MEL-5) was 7.4 µM (inactive), the GI50 (OVCAR-8) was 16.1 µM (inactive) and the GI50 (SK-OV-3) was > 100 µM (inactive). The GI50 (SF-539) was 23.8 µM (inactive), the GI50 (IGROV-1) was 7.38 µM (inactive) and the GI50 (CAKI-1) was 13.5 µM (inactive). The GI50 (UACC-257) was 10.6 µM (inactive), the GI50 (NCI-H226) was 22.8 µM (inactive) and the GI50 (A498) was 12.9 µM (inactive). The GI50 (SNB-19) was 22.6 µM (inactive), the GI50 (SR) was 36.9 µM (inactive) and the GI50 (LOX IMVI) was 6.95 µM (inactive). For the same molecule, the GI50 (SK-MEL-2) was 7.36 µM (inactive), the GI50 (NCI-H522) was 13.7 µM (inactive) and the GI50 (A549) was 18.6 µM (inactive). For the same molecule, the GI50 (HOP-62) was 26.9 µM (inactive), the GI50 (HCT-116) was 5.52 µM (inactive) and the GI50 (M14) was 18.6 µM (inactive). The GI50 (SK-MEL-28) was 13.1 µM (inactive), the GI50 (HT-29) was 3.89 µM (inactive) and the GI50 (OVCAR-4) was 12.6 µM (inactive). The GI50 (BT-549) was 11 µM (inactive), the GI50 (SNB-75) was 19.4 µM (inactive) and the GI50 (Malme-3M) was 1.91 µM (inactive). For the same molecule, the GI50 (PC-3) was 16.4 µM (inactive), the GI50 (MOLT-4) was 3.05 µM (inactive) and the GI50 (MCF7) was 7.71 µM (inactive). The GI50 (786-0) was 9.14 µM (inactive), the GI50 (NCI-H460) was 7.23 µM (inactive) and the GI50 (NCI/ADR-RES) was 3.78 µM (inactive). The GI50 (RPMI-8226) was 3.27 µM (inactive), the GI50 (HL-60) was 7.76 µM (inactive) and the GI50 (UO-31) was 14.1 µM (inactive). For the same molecule, the GI50 (COLO 205) was 5.05 µM (inactive), the GI50 (TK-10) was 23.4 µM (inactive) and the GI50 (OVCAR-5) was 23.7 µM (inactive). The GI50 (UACC-62) was 10.5 µM (inactive), the GI50 (SW-620) was 4.81 µM (inactive) and the GI50 (SF-268) was 15.9 µM (inactive). The GI50 (ACHN) was 11.8 µM (inactive), the GI50 (HCT-15) was 4.49 µM and the GI50 (NCI-H23) was 21.1 µM (inactive). For the same molecule, the GI50 (U-251) was 18.5 µM (inactive), the GI50 (Hs-578T) was 24.2 µM (inactive) and the GI50 (HCC 2998) was 16.8 µM (inactive). The GI50 (K562) was 31.3 µM (inactive), the GI50 (MDA-MB-435) was 2.33 µM (inactive) and the GI50 (RXF 393) was 9.04 µM (inactive). For the same molecule, the GI50 (KM12) was 7.41 µM (inactive), the GI50 (DU-145) was 15.4 µM (inactive) and the GI50 (T47D) was 9.95 µM (inactive). The GI50 (SF-295) was 13.7 µM (inactive), the GI50 (MDA-MB-231) was 20.7 µM (inactive) and the GI50 (OVCAR-3) was 3.91 µM (inactive).
For CC(C)CCC[C@@H](C)[C@H]1CC[C@H]2[C@@H]3CC[C@H]4C[C@@H](CCC=C(c5cc(Cl)c(O)c(C(=O)O)c5)c5cc(Cl)c(O)c(C(=O)O)c5)CC[C@]4(C)[C@H]3CC[C@]12C, the GI50 (EKVX) was > 100 µM (inactive), the GI50 (SN12C) was > 100 µM (inactive) and the GI50 (HOP-92) was > 100 µM (inactive). The GI50 (SK-MEL-5) was > 100 µM (inactive), the GI50 (OVCAR-8) was > 100 µM (inactive) and the GI50 (CCRF-CEM) was > 100 µM (inactive). For the same molecule, the GI50 (SK-OV-3) was > 100 µM (inactive), the GI50 (SF-539) was > 100 µM (inactive) and the GI50 (IGROV-1) was > 100 µM (inactive). The GI50 (CAKI-1) was > 100 µM (inactive), the GI50 (UACC-257) was > 100 µM (inactive) and the GI50 (NCI-H226) was > 100 µM (inactive). For the same molecule, the GI50 (A498) was > 100 µM (inactive), the GI50 (SNB-19) was > 100 µM (inactive) and the GI50 (SR) was > 100 µM (inactive). The GI50 (LOX IMVI) was > 100 µM (inactive), the GI50 (SK-MEL-2) was > 100 µM (inactive) and the GI50 (NCI-H522) was > 100 µM (inactive). For the same molecule, the GI50 (A549) was > 100 µM (inactive), the GI50 (HOP-62) was > 100 µM (inactive) and the GI50 (HCT-116) was > 100 µM (inactive). The GI50 (M14) was > 100 µM (inactive), the GI50 (SK-MEL-28) was > 100 µM (inactive) and the GI50 (HT-29) was > 100 µM (inactive). For the same molecule, the GI50 (OVCAR-4) was > 100 µM (inactive), the GI50 (BT-549) was > 100 µM (inactive) and the GI50 (SNB-75) was > 100 µM (inactive). The GI50 (Malme-3M) was > 100 µM (inactive), the GI50 (PC-3) was > 100 µM (inactive) and the GI50 (MOLT-4) was > 100 µM (inactive). The GI50 (MCF7) was > 100 µM (inactive), the GI50 (786-0) was > 100 µM (inactive) and the GI50 (NCI-H460) was > 100 µM (inactive). The GI50 (NCI/ADR-RES) was > 100 µM (inactive), the GI50 (RPMI-8226) was > 100 µM (inactive) and the GI50 (HL-60) was > 100 µM (inactive). The GI50 (UO-31) was > 100 µM (inactive), the GI50 (COLO 205) was > 100 µM (inactive) and the GI50 (TK-10) was > 100 µM (inactive). For the same molecule, the GI50 (OVCAR-5) was > 100 µM (inactive), the GI50 (UACC-62) was > 100 µM (inactive) and the GI50 (SW-620) was > 100 µM (inactive). For the same molecule, the GI50 (SF-268) was > 100 µM (inactive), the GI50 (ACHN) was > 100 µM (inactive) and the GI50 (HCT-15) was over 100 µM. The GI50 (NCI-H23) was > 100 µM (inactive), the GI50 (U-251) was > 100 µM (inactive) and the GI50 (Hs-578T) was > 100 µM (inactive). For the same molecule, the GI50 (HCC 2998) was > 100 µM (inactive), the GI50 (K562) was > 100 µM (inactive) and the GI50 (MDA-MB-435) was > 100 µM (inactive). For the same molecule, the GI50 (RXF 393) was > 100 µM (inactive), the GI50 (KM12) was > 100 µM (inactive) and the GI50 (DU-145) was > 100 µM (inactive). For the same molecule, the GI50 (T47D) was > 100 µM (inactive), the GI50 (SF-295) was > 100 µM (inactive) and the GI50 (MDA-MB-231) was > 100 µM (inactive). For the same molecule, the GI50 (OVCAR-3) was > 100 µM (inactive).
